Key:
[1] = system: left atrium of rats' hearts; experiment: Functional refractory period prolongation on isolated left atria of rats' hearts in vitro; design: species or system rat (Sprague-Dawley); conditions: 10 μM
Protocol: 3. Investigation of the Functional Effectiveness of the Substances on the Atrium of Rats' Hearts in Vitro
In this test model it is determined to what extent the Kv 1.5-blocking substances of Formula I result in a prolongation of the functional refractory period in the left atrium of rats. The refractory period is the minimum possible elapsed time between the basic stimulus and additional stimulus in which a renewed contraction can be triggered. The extent of the prolongation of the functional refractory period is a measurement of the antiarrhythmic effectiveness of the substances according to the invention. The functional refractory period is determined by testing on the electrically stimulated preparation at what elapsed time from the preceding contraction a renewed contraction can be triggered by additional electrical stimuli.
The hearts were removed from freshly sacrificed rats (Sprague-Dawley, Charles-River, Germany). The left atria were isolated and fastened to force transducers in a temperature-controlled (30° C.), gasified (O2 95%, CO2 5%) organ bath which was filled with modified Tyrode solution (all values in mM: NaCl 137; KCl 2.7; CaCl2 1.8; MgCl2 0.8; NaHCO3 11.9; NaH2PO4 0.6; glucose 5). In order to trigger regular contractions, the preparations were electrically stimulated (rectangular pulses, pulse magnitude 3.5× threshold stimulus, pulse width 1.5 ms, frequency 1 Hz). Initially, the initial value of the functional refractory period was determined by applying extra pulses in addition to the basic stimulus, the elapsed time from the preceding basic stimulus being shortened until no further additional contraction could be triggered. Then the cumulative addition of increasing concentrations (0.1-10 μM) of the substances of Formula I took place at intervals of 20 min. each, the refractory period being determined again in each case 18 min. after the addition had taken place. Before the measurement, stock solutions of the test substances (3.2 and 0.32 mM in 100% DMSO) were prepared. In order to achieve the desired final concentrations of the substances (0.1-10 μM) in the organ bath (volume 100 ml), corresponding volumes of these stock solutions were then poured into the organ bath.
In each case the prolongation of the functional refractory period (FRP) in the left atrium of the rats' hearts in milliseconds observed after the addition of 10 μM of the respective substance of Formula I to the atrial preparations was given as characteristic variable.

[2] = target: T1, Kv 1.5-potassium channel (Homo sapiens, UniProt P22460); experiment: In-vitro Kv 1.5-potassium channel-blocking effect (Rb+ outflow from CHO cells, atomic absorption spectroscopy); assay type: cell-based; conditions: CHO cells stably expressing Kv 1.5, read-out: IC50 (Kv1.5-potassium channel-blocking effect, concentration of half-maximum inhibition)
T1 construct: expressed in transfected cells
Protocol: 1. In-Vitro Investigation of the Kv 1.5-Potassium Channel-Blocking Effect of the Substances
In this test model, a cell line of egg cells of the Chinese hamster (=“Chinese hamster oocytes”, “CHO”) is used which originates from a single cell and stably expresses the Kv 1.5-channel. By incubation overnight in a nutrient medium containing RbCl or a “loading buffer” (all values in mM: RbCl 5, NaCl 140, CaCl2 2, MgSO4 1, HEPES buffer 10, glucose 5) the aforementioned oocytes are loaded with Rb^+ under the influence of Na^+/K^+-ATPase. Thereafter, a portion of the oocytes is incubated as a reference standard in the absence of an inhibitor, while another portion of the oocytes is incubated in the presence of the respective inhibitory test substance of Formula I. Then the oocytes are depolarized by increasing the extracellular potassium-ion concentration, which causes the Kv 1.5-potassium channels of the oocytes to open. In the absence of an inhibitor, the Rb^+ ions flow through the Kv 1.5-potassium channels into the liquid surrounding them. In the presence of an inhibitory test substance of Formula I, on the other hand, the Rb^+ ions remain locked within the oocytes. The extent of the Kv 1.5-potassium channel-blocking effect of the test substances of Formula I is determined by measuring the Rb^+ ion concentration in the liquid surrounding them by means of atomic absorption spectroscopy against a reference standard.
Chinese hamster oocytes (see above) were cultivated in a known, RbCl-containing nutrient medium for CHO-cells and placed in the sample wells of a 96-sample capacity sample plate (“96 well plate”). The oocytes were allowed to grow overnight in order to obtain monolayers of the oocytes. Then the nutrient medium was pipetted off, and each sample well was washed three times with 100 μl portions of a preincubation buffer of low potassium-ion concentration (all values in mM: KCl 5, NaCl 140, CaCl2 2, MgSO4 1, HEPES buffer 10, glucose 5). Then 50 μl of a solution of the respective test substance (stock solution in DMSO, dilution with preincubation buffer, final concentration in the test batch 10 μM) or of the solvent (as negative controls) was added to each sample well and incubated for 10 min. in each case at room temperature. Then 50 μl of a stimulation buffer with elevated potassium-ion concentration (KCl 145 mM, NaCl 0 mM, otherwise as preincubation buffer) was added to each sample well and the samples were then incubated for a further 10 min. at room temperature. In each case, 80 μl of the liquid surrounding the oocytes from each sample well was then transferred separately to the sample wells of an analysis sample plate, and the Rb^+ ion concentration in the liquids was determined by atomic absorption spectroscopy. The test substances were each double-tested. The signal section which represented the Kv 1.5 component of the Rb^+ outflow was defined by using as positive control the known potassium channel blocker 4-AP in a high concentration (100×IC50 for the Kv 1.5 channel). This made it possible to determine which portion of the Rb^+ outflow was dependent on the influence of the 4-AP and therefore is to be assigned to the Kv 1.5 channel. For the substances which in the concentration of 10 μM used led to a reduction in the Rb^+ outflow of at least 50%, additional tests were performed with lower concentrations of the test substances in order to be able to determine the half-maximum effective concentration. In each case the concentration of half-maximum inhibition of the test substances of Formula I (IC50) was given as characteristic variable.

[3] = target: T2, Kv 1.3-potassium channel (Homo sapiens, UniProt P22001); experiment: In-vitro Kv 1.3-potassium channel-blocking effect (membrane potential-sensitive fluorescent dye in transfected CHO cells); assay type: cell-based; conditions: 10 μM test substance; CHO cells transfected with Kv 1.3; relative to reference margatoxin
T2 construct: expressed in transfected cells; host or cells: CHO cells, stably transfected with the Kv 1.3 plasmid using DMRIE-C
Description: 2. In-Vitro Investigation of the Kv 1.3-Potassium Channel-Blocking Effect of the Substances
In this test model, known oocytes of the Chinese hamster (═CHO) are used which are stably transfected with the Kv 1.3-potassium channel. The blockade of the cell-inherent Kv 1.3-potassium channel activity in the transfected cells is accompanied by a positive shift in the membrane potential from approx. −40 mV to −30 mV, whereas in the wild-type CHO cells investigated in parallel no significant shift in the membrane potential is triggered. A change in the membrane potential is thus connected to the reduction in the Kv 1.3-potassium channel activity. By blocking the Kv 1.3-potassium channels e.g. with substances of Formula I and the resulting change in the membrane potential, an accumulation of a membrane potential-sensitive fluorescent dye in intracellular compartments of the oocytes and ultimately increasing fluorescence occurs. The change in the membrane potential of the oocytes is therefore measured indirectly via the increase in fluorescence of the membrane potential-senstive dyes.
The cells were transfected with the Kv 1.3 plasmid in known manner with a commercially obtainable transfection reagent (DMRIE-C from Gibco BRL, Germany). The successful transfection was verified by immunofluorescence and by “patch-clamp” investigations of the potassium ion current. The fluorescence measurements were performed on a Tecan Safire fluorescence reader from Tecan, Germany. In each case, the increase in the fluorescent intensity caused by the blockade of the Kv 1.3-potassium channels in the oocytes with substances of Formula I in a concentration of 10 μM was determined as characteristic variable. The increase in the fluorescent intensity was given in each case in percent (%) compared with an increase in the fluorescent intensity caused by the reference substance margatoxin. Margatoxin is known as a selective Kv 1.3-potassium channel blocker (see e.g. M. Garcia-Calvo et al., J. Biol. Chem. 268 (1993) 18866-18874).

T1 sequence (P22460 whole entry): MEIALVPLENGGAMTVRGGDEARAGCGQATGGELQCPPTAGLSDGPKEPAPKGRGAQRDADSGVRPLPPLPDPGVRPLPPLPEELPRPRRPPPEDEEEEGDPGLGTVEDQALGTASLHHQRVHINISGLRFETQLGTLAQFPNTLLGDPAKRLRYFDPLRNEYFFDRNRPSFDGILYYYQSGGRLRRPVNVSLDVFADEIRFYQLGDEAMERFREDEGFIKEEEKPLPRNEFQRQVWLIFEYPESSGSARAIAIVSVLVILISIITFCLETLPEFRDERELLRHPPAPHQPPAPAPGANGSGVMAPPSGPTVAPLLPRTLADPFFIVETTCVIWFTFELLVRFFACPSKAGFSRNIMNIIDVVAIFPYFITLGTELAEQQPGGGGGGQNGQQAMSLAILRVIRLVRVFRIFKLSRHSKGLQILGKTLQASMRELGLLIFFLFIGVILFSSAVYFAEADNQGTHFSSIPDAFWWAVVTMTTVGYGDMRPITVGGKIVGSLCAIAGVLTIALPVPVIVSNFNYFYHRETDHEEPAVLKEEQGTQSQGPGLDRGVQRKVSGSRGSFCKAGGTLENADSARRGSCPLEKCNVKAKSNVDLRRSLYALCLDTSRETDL
T2 sequence (P22001 whole entry): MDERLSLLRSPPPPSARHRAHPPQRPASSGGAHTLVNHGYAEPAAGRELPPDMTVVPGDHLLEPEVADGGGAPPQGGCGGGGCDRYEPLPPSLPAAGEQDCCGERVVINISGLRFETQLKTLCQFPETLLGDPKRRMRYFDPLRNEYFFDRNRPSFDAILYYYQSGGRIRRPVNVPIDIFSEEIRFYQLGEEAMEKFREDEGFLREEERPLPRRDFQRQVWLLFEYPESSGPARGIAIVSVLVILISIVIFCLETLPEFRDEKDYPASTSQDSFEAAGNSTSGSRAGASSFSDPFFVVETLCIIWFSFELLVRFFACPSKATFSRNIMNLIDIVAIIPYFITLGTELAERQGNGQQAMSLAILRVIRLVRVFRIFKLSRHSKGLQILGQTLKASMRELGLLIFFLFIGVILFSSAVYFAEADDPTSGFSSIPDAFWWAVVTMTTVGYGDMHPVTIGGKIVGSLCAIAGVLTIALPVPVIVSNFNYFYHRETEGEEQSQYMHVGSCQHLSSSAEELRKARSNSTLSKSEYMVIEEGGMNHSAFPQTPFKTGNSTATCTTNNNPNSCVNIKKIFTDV

SMILES | FRP prolongation [1] [ms] | IC50 [2] [µM] | Increase in the fluorescent intensity (% margatoxin) [3] [% margatoxin]
Cc1ccc(S(=O)(=O)NC2c3cc(CC(=O)NC4CCCc5ccccc54)ccc3OC(C)(C)C2O)cc1 (mixture of isomers) [Example 15] | 30 | 4 | 
Cc1ccc(S(=O)(=O)N(CC2CC2)C2c3cc(CC(=O)NCc4ccccc4)ccc3OC(C)(C)C2O)cc1 (stereo not shown) [Example 18] |  | 2.7 | 141
Cc1cccc(S(=O)(=O)NC2c3cc(CC(=O)NCc4ccc(Cl)cc4)ccc3OC(C)(C)C2O)c1 (stereo not shown) [Example 5, N-(4-chlorobenzyl)-2-(3-hydroxy-2,2-dimethyl-4-{[(3-methylphenyl)sulfonyl]amino}-3,4-dihydro-2H-chromen-6-yl)acetamide] |  | 5 | 82
Cc1ccc(S(=O)(=O)N(CCC(C)C)C2c3cc(CC(=O)NCc4ccccc4)ccc3OC(C)(C)C2O)cc1 (stereo not shown) [Example 19] |  | 2.5 | 171
CCCNC(=O)Cc1ccc2c(c1)C(N(CC(C)C)S(=O)(=O)c1ccc(F)c(Cl)c1)C(O)C(C)(C)O2 (stereo not shown) [Example 24] |  | 5 | 
CCCCCN(C1c2cc(CC(=O)NC(C)C(C)C)ccc2OC(C)(C)C1O)S(=O)(=O)c1cccc(OC)c1 (stereo not shown) [Example 22] |  | 3.4 | 71
CC(C)CCN(C1c2cc(CC(=O)NCc3ccccc3)ccc2OC(C)(C)C1O)S(=O)(=O)c1ccc2ccccc2c1 (stereo not shown) [Example 25] |  | 5.2 | 
COc1cccc(S(=O)(=O)N(CCC(C)C)C2c3cc(CC(=O)NCc4ccc(Cl)cc4)ccc3OC(C)(C)C2O)c1 (stereo not shown) [Example 27] |  | 5.6 | 
CC(C)CCN(C1c2cc(CC(=O)NCc3ccccc3)ccc2OC(C)(C)C1O)S(=O)(=O)c1ccc(C(F)(F)F)cc1 (stereo not shown) [Example 23] |  | 4.3 | 41
CCCCNC(=O)Cc1ccc2c(c1)C(NS(=O)(=O)c1ccc(I)cc1)C(O)C(C)(C)O2 (stereo not shown) [Example 17] |  | 2.65 | 72
CCCNC(=O)Cc1ccc2c(c1)C(N(CCC(C)C)S(=O)(=O)c1ccc(-c3ccccc3)cc1)C(O)C(C)(C)O2 (stereo not shown) [Example 26] |  | 5.2 | 
CCC(CC)CN(C1c2cc(CC(=O)NCc3ccco3)ccc2OC(C)(C)C1O)S(=O)(=O)c1cc(OC)ccc1OC (stereo not shown) [Example 21] |  | 3.3 | 86
CCCCNC(=O)Cc1ccc2c(c1)C(N(CC(CC)CC)S(=O)(=O)c1cc(OC)ccc1OC)C(O)C(C)(C)O2 (stereo not shown) [Example 6] |  | 2.9 | 97

Reference: patent US7368582B2, “Amidomethyl-substituted 2-(4-sulfonylamino)-3-hydroxy-3,4-dihydro-2H-chromen-6-yl compounds, a process and intermediates for their production, and pharmaceutical compositions containing them” (Solvay Pharmaceuticals GmbH, priority 2003, dated 2008)
